# Measurements from PubChem BioAssay (NCI).
#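 Five compound concentrations were applied to cells in 96-well plates for 48 hours; endpoints were derived by simple linear interpolation of the resulting dose-response curve. TGI: concentration producing complete growth inhibition.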
# Experiments:
# Experiment in all cases: DTP human tumour cell line panel, 48 h
# 786-0 renal = test system: 786-0 renal
# A498 renal = test system: A498 renal
# A549 NSCLC = test system: A549 NSCLC
# ACHN renal = test system: ACHN renal
# BT-549 breast = test system: BT-549 breast
# CAKI-1 renal = test system: CAKI-1 renal
# CCRF-CEM leukemia = test system: CCRF-CEM leukemia
# COLO 205 colon = test system: COLO 205 colon
# DU-145 prostate = test system: DU-145 prostate
# EKVX NSCLC = test system: EKVX NSCLC
# HCC-2998 colon = test system: HCC-2998 colon
# HCT-116 colon = test system: HCT-116 colon
# HCT-15 colon = test system: HCT-15 colon
# HL-60(TB) leukemia = test system: HL-60(TB) leukemia
# HOP-62 NSCLC = test system: HOP-62 NSCLC
# HOP-92 NSCLC = test system: HOP-92 NSCLC
# HS 578T breast = test system: HS 578T breast
# HT29 colon = test system: HT29 colon
# IGROV1 ovarian = test system: IGROV1 ovarian
# K-562 leukemia = test system: K-562 leukemia
# KM12 colon = test system: KM12 colon
# LOX IMVI melanoma = test system: LOX IMVI melanoma
# M14 melanoma = test system: M14 melanoma
# MALME-3M melanoma = test system: MALME-3M melanoma
# MCF7 breast = test system: MCF7 breast
# MDA-MB-231 breast = test system: MDA-MB-231 breast
# MDA-MB-435 = test system: MDA-MB-435
# MDA-N = test system: MDA-N
# MOLT-4 leukemia = test system: MOLT-4 leukemia
# NCI-H23 lung = test system: NCI-H23 lung
# NCI-H460 lung = test system: NCI-H460 lung
# NCI-H522 lung = test system: NCI-H522 lung
# NCI/ADR-RES ovarian = test system: NCI/ADR-RES ovarian
# OVCAR-3 ovarian = test system: OVCAR-3 ovarian
# OVCAR-4 ovarian = test system: OVCAR-4 ovarian
# OVCAR-5 ovarian = test system: OVCAR-5 ovarian
# OVCAR-8 ovarian = test system: OVCAR-8 ovarian
# PC-3 prostate = test system: PC-3 prostate
# RXF 393 renal = test system: RXF 393 renal
# SF-268 CNS = test system: SF-268 CNS
# SF-295 CNS = test system: SF-295 CNS
# SF-539 CNS = test system: SF-539 CNS
# SK-MEL-2 melanoma = test system: SK-MEL-2 melanoma
# SK-MEL-28 melanoma = test system: SK-MEL-28 melanoma
# SK-MEL-5 melanoma = test system: SK-MEL-5 melanoma
# SK-OV-3 ovarian = test system: SK-OV-3 ovarian
# SN12C renal = test system: SN12C renal
# SNB-19 CNS = test system: SNB-19 CNS
# SR leukemia = test system: SR leukemia
# SW-620 colon = test system: SW-620 colon
# T-47D breast = test system: T-47D breast
# TK-10 renal = test system: TK-10 renal
# U251 CNS = test system: U251 CNS
# UACC-257 melanoma = test system: UACC-257 melanoma
# UACC-62 melanoma = test system: UACC-62 melanoma
# UO-31 renal = test system: UO-31 renal
# NCI-H226 lung = test system: NCI-H226 lung
# RPMI-8226 leukemia = test system: RPMI-8226 leukemia
# SNB-75 CNS = test system: SNB-75 CNS
smiles,measurement,setting,value
CCN(CC)Cc1ccc(Nc2c3ccccc3nc3ccccc23)cc1,TGI,786-0 renal,10 µM
same,TGI,A498 renal,9.41 µM
same,TGI,A549 NSCLC,2820 nM
same,TGI,ACHN renal,1220 nM
same,TGI,BT-549 breast,23.6 µM
same,TGI,CAKI-1 renal,4.66 µM
same,TGI,CCRF-CEM leukemia,8.28 µM
same,TGI,COLO 205 colon,5.78 µM
same,TGI,DU-145 prostate,7.01 µM
same,TGI,EKVX NSCLC,26.2 µM
same,TGI,HCC-2998 colon,2400 nM
same,TGI,HCT-116 colon,6.99 µM
same,TGI,HCT-15 colon,2560 nM
same,TGI,HL-60(TB) leukemia,> 100 µM
same,TGI,HOP-62 NSCLC,6.84 µM
same,TGI,HOP-92 NSCLC,11.9 µM
same,TGI,HS 578T breast,21.8 µM
same,TGI,HT29 colon,22.3 µM
same,TGI,IGROV1 ovarian,13.9 µM
same,TGI,K-562 leukemia,7.69 µM
same,TGI,KM12 colon,13.1 µM
same,TGI,LOX IMVI melanoma,3.3 µM
same,TGI,M14 melanoma,3.15 µM
same,TGI,MALME-3M melanoma,3.61 µM
same,TGI,MCF7 breast,4.36 µM
same,TGI,MDA-MB-231 breast,4.64 µM
same,TGI,MDA-MB-435,4.17 µM
same,TGI,MDA-N,3.23 µM
same,TGI,MOLT-4 leukemia,> 100 µM
same,TGI,NCI-H23 lung,4.52 µM
same,TGI,NCI-H460 lung,3.05 µM
same,TGI,NCI-H522 lung,3.56 µM
same,TGI,NCI/ADR-RES ovarian,22.4 µM
same,TGI,OVCAR-3 ovarian,12.8 µM
same,TGI,OVCAR-4 ovarian,7.64 µM
same,TGI,OVCAR-5 ovarian,5.46 µM
same,TGI,OVCAR-8 ovarian,15 µM
same,TGI,PC-3 prostate,3.68 µM
same,TGI,RXF 393 renal,3.96 µM
same,TGI,SF-268 CNS,9.38 µM
same,TGI,SF-295 CNS,10.9 µM
same,TGI,SF-539 CNS,3.45 µM
same,TGI,SK-MEL-2 melanoma,7.27 µM
same,TGI,SK-MEL-28 melanoma,4.69 µM
same,TGI,SK-MEL-5 melanoma,3.15 µM
same,TGI,SK-OV-3 ovarian,5.56 µM
same,TGI,SN12C renal,7.66 µM
same,TGI,SNB-19 CNS,3.22 µM
same,TGI,SR leukemia,22.2 µM
same,TGI,SW-620 colon,4.12 µM
same,TGI,T-47D breast,16.7 µM
same,TGI,TK-10 renal,18.8 µM
same,TGI,U251 CNS,6.68 µM
same,TGI,UACC-257 melanoma,3.21 µM
same,TGI,UACC-62 melanoma,3.66 µM
same,TGI,UO-31 renal,5.22 µM
COc1ccc(/C=N/n2c(Cc3ccccc3)n[nH]c2=O)cc1,TGI,786-0 renal,> 100 µM
same,TGI,A498 renal,> 100 µM
same,TGI,A549 NSCLC,> 100000 nM
same,TGI,ACHN renal,> 100000 nM
same,TGI,BT-549 breast,> 100 µM
same,TGI,CAKI-1 renal,> 100 µM
same,TGI,CCRF-CEM leukemia,> 100 µM
same,TGI,COLO 205 colon,> 100 µM
same,TGI,DU-145 prostate,> 100 µM
same,TGI,EKVX NSCLC,> 100 µM
same,TGI,HCC-2998 colon,> 100000 nM
same,TGI,HCT-116 colon,> 100 µM
same,TGI,HCT-15 colon,> 100000 nM
same,TGI,HOP-62 NSCLC,> 100 µM
same,TGI,HS 578T breast,54.4 µM
same,TGI,HT29 colon,> 100 µM
same,TGI,K-562 leukemia,> 100 µM
same,TGI,KM12 colon,> 100 µM
same,TGI,M14 melanoma,> 100 µM
same,TGI,MALME-3M melanoma,> 100 µM
same,TGI,MCF7 breast,> 100 µM
same,TGI,MDA-MB-231 breast,> 100 µM
same,TGI,MDA-MB-435,> 100 µM
same,TGI,MDA-N,> 100 µM
same,TGI,MOLT-4 leukemia,> 100 µM
same,TGI,NCI-H226 lung,> 100 µM
same,TGI,NCI-H23 lung,> 100 µM
same,TGI,NCI-H460 lung,> 100 µM
same,TGI,NCI/ADR-RES ovarian,> 100 µM
same,TGI,OVCAR-3 ovarian,> 100 µM
same,TGI,OVCAR-4 ovarian,> 100 µM
same,TGI,OVCAR-5 ovarian,> 100 µM
same,TGI,OVCAR-8 ovarian,> 100 µM
same,TGI,PC-3 prostate,> 100 µM
same,TGI,RPMI-8226 leukemia,> 100 µM
same,TGI,SF-268 CNS,> 100 µM
same,TGI,SF-295 CNS,> 100 µM
same,TGI,SF-539 CNS,> 100 µM
same,TGI,SK-MEL-2 melanoma,> 100 µM
same,TGI,SK-MEL-28 melanoma,> 100 µM
same,TGI,SK-OV-3 ovarian,> 100 µM
same,TGI,SN12C renal,> 100 µM
same,TGI,SNB-19 CNS,> 100 µM
same,TGI,SNB-75 CNS,> 100 µM
same,TGI,SW-620 colon,> 100 µM
same,TGI,T-47D breast,> 100 µM
same,TGI,U251 CNS,> 100 µM
same,TGI,UACC-257 melanoma,> 100 µM
same,TGI,UACC-62 melanoma,> 100 µM
same,TGI,UO-31 renal,> 100 µM
